According to patent US5468744A (priority 1994, dated 1995):
Read-outs that look alike come from different tables or passages of the source.

How the values were obtained:
[1] = in vivo; cited from earlier work
[2] = Tail-flick test, analgesic activity in male CD1 mice (oral, 15 min); format: in vivo; conditions: for ED50: Mus musculus, po, 0.25 h, read-out: ED50 (95% confidence interval), drug alone; for ED50 at 15 min (95% Cl's), Tramadol: tramadol component
Protocol: For each of the ratios of individual drugs used in the drug combinations tested (Table I), stock solutions were prepared that corresponded to twice the dose of each drug having a concentration expressed in mgdrug(s) per 5 mL of distilled water. For example, in the case of the 1:20 tramadol:codeine ratio, 9.1 mg of tramadol hydrochloride (=8.0 mg of tramadol as the base) and 217.1 mg of codeine phosphate (=160.0 mg of codeine as the free base) were each dissolved in separate 5 mL vials of distilled water to form individual stock solutions. Equal volumes of each of the stock solutions were then combined to prepare the final desired drug combination per 10 mL of distilled water. […] Then 10 mL/kg of the stock solution was injected into the mouse. See, Table I. Each ratio was prepared separately in a similar manner and injected in a volume of 10 mL/kg per mouse.
The preparation of different ratios of a tramadol/oxycodone combination is effected by preparing a stock solution having a concentration expressed in mgdrugs per 10 mL of dissolved water. […] Each ratio was prepared separately in a similar manner and injected in a volume of 10 mL/kg per mouse.
Some mice were dosed orally with the compositions as made in Example 1 and as shown in Table 1 and other mice were dosed orally with the compositions as made in Example 2 and as shown in Table II. The dosing volume was 10 mL/kg.
Analgesic activity was assessed employing the tail-flick test as described by F. D'Amour et al., J. Pharmacol. Exp. Ther., 72, 74 (1941). The test involved subjecting the tail of a mouse to a focused heat stimulus and monitoring the response, i.e., "flicking" (removing) of the tail from the source of the stimulus. The reaction time (latency) of the response was first measured without the administration of any drug composition, and repeated fifteen minutes after the administration of compositions of the invention wherein the components of the compositions are in various ratios. Each mouse was only subjected to one pre- and post-administration test.
The analysis of possible superadditivity for the compositions at each fixed ratio was determined as disclosed by R. J. Tallarida et al., Life Sci., 45, 947 (1989). This procedure involved determination of the total amount in the mixture that is required to produce a specified level of effect, such as 50% (ED50mix), and the corresponding total amount that would be expected under simple additivity (ED50add). Where it was established that ED50mix <ED50add for a specific fixed-ratio,then that composition ratio is superadditive. Both the 1quantities ED50mix and ED50add were random variables; ED50mix was estimated from the dose-response curve for a specific fixed-ratio; ED50add was obtained by combining the ED50 estimates for the two drugs under additivity. ED50mix was then compared to ED50add via a t-test. […] The interaction between tramadol and codeine or […] were determined at precise dosage ratios of tramadol hydrochloride and codeine or oxycodone. Multiple (typically 4-6) coded doses of each selected combination were studied for analgesic effectiveness after 15 minutes using an experimental design which permitted the complete randomization of the separate dosage forms tested.
In the Figures, the diagonal line joining the ED50 values of the two drugs given separately represents the simple additivity of a composition effects at different component ratio. The dotted adjacent lines to the diagonal line define the 95% confidence interval. ED50's falling under the curve (between the line and the origin) indicate superadditivity, i.e., unexpected enhancement of effects. The diagonal dashed lines radiating from the origin represent the dose ratios of tramadol hydrochloride to codeine phosphate (FIG. 1) or oxycodone sulfate (FIG. 2) used in mice receiving the combined drug dosages. The bars through the ED50 points for tramadol and codeine or oxycodone compositions represent the 95% confidence intervals of the ED50.

[3] = drug alone, p.o., tail-flick, mice, 15 min

## COc1ccc2c3c1O[C@H]1[C@@H](O)C=C[C@H]4[C@@H](C2)N(C)CC[C@@]341 [Codeine only]
[1]
  side effects: respiratory depression, constipation, tolerance and abuse liability
[2]; [3]
  ED50: 71.3 mg/kg
[2]; codeine 10 mg/kg p.o., 15 min
  Analgesia: 0/10
[2]; codeine 20 mg/kg p.o., 15 min
  Analgesia: 1/10
[2]; codeine 40 mg/kg p.o., 15 min
  Analgesia: 1/10
[2]; codeine 80 mg/kg p.o., 15 min
  Analgesia: 5/10
[2]; codeine 160 mg/kg p.o., 15 min
  Analgesia: 10/10

## COc1ccc2c3c1O[C@H]1C(=O)CC[C@H]4[C@@H](C2)N(C)CC[C@]314 [hydrocodone]
[1]
  side effects: respiratory depression, constipation, tolerance and abuse liability

## COc1ccc2c3c1O[C@H]1C(=O)CC[C@@]4(O)[C@@H](C2)N(C)CC[C@]314 [oxycodone only]
[1]
  side effects: respiratory depression, constipation, tolerance and abuse liability
[2]
  ED50: 4.2 mg/kg
[2]; oxycodone 0.5 mg/kg p.o., 15 min
  Analgesia: 0/10
[2]; oxycodone 1 mg/kg p.o., 15 min
  Analgesia: 2/20
[2]; oxycodone 2 mg/kg p.o., 15 min
  Analgesia: 3/10
[2]; oxycodone 3 mg/kg p.o., 15 min
  Analgesia: 2/10
[2]; oxycodone 6 mg/kg p.o., 15 min
  Analgesia: 5/10
[2]; oxycodone 10 mg/kg p.o., 15 min
  Analgesia: 9/10
[2]; oxycodone 20 mg/kg p.o., 15 min
  Analgesia: 10/10
[2]; oxycodone 30 mg/kg p.o., 15 min
  Analgesia: 10/10

## COc1cccc(C2(O)CCCCC2CN(C)C)c1 (stereo not drawn) [tramadol only, (1RS, 2RS) trans-2-[(dimethylamino)-methyl]-1-(3-methoxyphenyl)cyclohexanol]
[2]; Table I (tramadol:codeine), p.o., 15 min
  ED50 at 15 min (95% Cl's), Tramadol: 76.8 mg/kg
[2]; Table II (tramadol:oxycodone), p.o., 15 min
  ED50 at 15 min (95% Cl's), Tramadol: 76.8 mg/kg
[2]; [3]
  ED50 (95% confidence interval), drug alone: 76.8 (59.2-99.7) mg/kg
